{"source": "patent US7148191B2", "about": "“Antigenic composition” (Intercell AG, priority 2000, dated 2006)", "key": {"[1]": {"test_system": "peptide-specific IFN-γ-producing T cells in spleen or peripheral blood", "experiment": "IFN-γ ELISPOT of peripheral blood leukocytes or spleen cells (systemic response) after injection of OVA257-264-peptide mixtures", "format": "in vivo, mice (C57B1/6)", "settings": "Example 11, FIG. 11; selected time points after one single injection", "method": "To investigate whether the immune response induced by one single injection of peptide with pIC/pR is systemic, the rest of the animals (four per group) was bled from the tail vein at selected time points after injection, peripheral blood leukocytes (PBLs) were isolated, re-stimulated either with the relevant peptide, pIC, pR, ConA (positive control) or medium alone (background) and the number of IFN-γ-secreting T lymphocytes was determined using an ELISPOT assay. Assays were carried out in duplicates. Each spot represents a single IFN-γ-producing T cell. Spots were counted using a Biosys reader (Biosys, Germany). Number of background spots was subtracted from all samples. Results are expressed as the number of spots/1×10^6 cells±SD of duplicates.\n(§1) To examine whether the immune response induced by one single injection of peptide with oligo-dIC/pR is systemic, the rest of the mice (4 mice/group) was investigated at selected time points after injection for the presence of peptide-specific IFN-γ-producing T cells in spleen or peripheral blood using an IFN-γ ELISPOT assay. Results are expressed as the number of spots/1×10^6 cells±SD of duplicates."}, "[2]": {"test_system": "OVA257-264-peptide-specific IFN-γ-producing T cells", "experiment": "IFN-γ ELISPOT of draining lymph node cells after injection of OVA257-264-peptide mixtures", "format": "in vivo, mice (C57B1/6)", "settings": "Example 11; day 4; peptide 300 μg, oligo-dIC26-mer 5 nmol, pR 100 μg/mouse; footpad", "procedure": "Experimental Groups (4 Mice Per Group) • 1. OVA257-264-peptide+pIC+pR • 2. OVA257-264-peptide+pIC • 3. OVA257-264-peptide+pR On day 0 mice were injected into each hind footpad with a total volume of 100 μl (50 μl per footpad) containing the above mentioned compounds. Animals were sacrificed 4 days after injection and popliteal lymph nodes were harvested. Single cell suspensions were prepared by mincing lymph nodes through a 70 μm cell strainer. Thereafter, cells were washed twice with DMEM medium (Life Technologies) containing 5% fetal calf serum (FCS, SIGMA Chemicals). Cells were adjusted to 10^7 cells/ml in DMEM/5% FCS. IFN-γ ELISPOT assays were carried out in triplicates as described (Miyahira et al., 1995). […] Spots were counted using a Biosys reader (Biosys, Germany). […] The Results are expressed as the number of spots/1×10^6 unseparated cells±SD of triplicates."}, "OVA-specific T cells": {"test_system": "OVA-specific T cells", "experiment": "IFN-γ ELISPOT of draining lymph node cells after injection of ovalbumin (OVA) mixtures", "format": "in vivo, mice (C57B1/6)", "settings": "Example 12, FIG. 12A; OVA 50 μg, oligo-dIC26-mer 5 nmol, pR 100 μg/mouse; footpad; day 4 LN", "method": "Experimental Groups (4 Mice Per Group) • 1. OVA257-264-peptide+pIC+pR • 2. OVA257-264-peptide+pIC • 3. OVA257-264-peptide+pR On day 0 mice were injected into each hind footpad with a total volume of 100 μl (50 μl per footpad) containing the above mentioned compounds. Animals were sacrificed 4 days after injection and popliteal lymph nodes were harvested. Single cell suspensions were prepared by mincing lymph nodes through a 70 μm cell strainer. Thereafter, cells were washed twice with DMEM medium (Life Technologies) containing 5% fetal calf serum (FCS, SIGMA Chemicals). Cells were adjusted to 10^7 cells/ml in DMEM/5% FCS. […] This method is a widely used procedure for the quantification of antigen-specific T cells. […] Spots were counted using a Biosys reader (Biosys, Germany). […] The Results are expressed as the number of spots/1×10^6 unseparated cells±SD of triplicates. […]\nExperimental Groups (4 Mice Per Group) • 1. […] Results are expressed as the number of spots/1×10^6 cells±SD of triplicates. […] Importantly, the IFN-γ production was detected not only upon the re-stimulation with the whole OVA protein but also with both, MHC class I (OVA257-264)- and II (OVA265-280)-restricted OVA-derived epitopes (FIG. 9).\nExperimental Groups (8 Mice Per Group) • 1. […] Results are expressed as the number of spots/1×10^6 cells±SD of triplicates."}, "[3]": {"test_system": "peptide-specific IFN-γ-producing T cells in peripheral blood", "experiment": "IFN-γ ELISPOT of peripheral blood leukocytes after injection of ovalbumin (OVA) mixtures", "format": "in vivo, mice (C57B1/6)", "settings": "Example 12, FIG. 12B; PBLs re-stimulated with OVA257-264-peptide; selected time points after one single injection", "source_text": "as §1, with “To further examine whether” for “To examine whether”, “injection of OVA protein with oligo-dIC/pR” for “injection of peptide with oligo-dIC/pR”, “cells in peripheral blood” for “cells in spleen or peripheral blood”"}, "[4]": {"test_system": "human monocyte-derived DCs", "experiment": "In vitro phenotypic maturation of DCs, surface molecules by flow cytometry", "format": "cell-based", "settings": "48 hours; for phenotypic maturation of DCs (overall): each 10 μg/ml, LPS 1 μg/ml as control"}, "[5]": {"settings": "Example 10, FIG. 10, 10 μg/ml, day 6-cultured DCs, vs untreated DCs"}}}
{"substance": "OVA257–264-Peptide (SIINFEKL) [OVA257-264-peptide]", "values": [{"measurement": "systemic response (peptide-specific IFN-γ-producing T cells in spleen or peripheral blood)", "setting": "[1]", "value": "could not be observed"}, {"measurement": "local antigen-specific response in draining lymph node cells", "setting": "[2]", "value": "could not be observed"}]}
{"substance": "OVA: Ovalbumin from chicken egg, grade V, SIGMA Chemicals, A-5503", "values": [{"measurement": "local antigen-specific T cell response in lymph node cells", "setting": "OVA-specific T cells", "value": "could not be observed"}, {"measurement": "systemic response (peptide-specific IFN-γ-producing T cells in peripheral blood)", "setting": "[3]", "value": "could not be observed"}]}
{"substance": "Poly-L-arginine [pR]", "values": [{"measurement": "phenotypic maturation of DCs (overall)", "setting": "[4]; Example 10, FIG. 10", "value": "None of the above described phenotypic changes could be observed"}]}
{"substance": "Polyinosinic-polycytidylic acid [pIC]", "values": [{"measurement": "expression of CD1a molecules", "setting": "[4]; [5]", "value": "down-regulation"}, {"measurement": "expression of CD86 and the maturation marker CD83", "setting": "[4]; [5]", "value": "de-novo expression"}, {"measurement": "expression of HLA-DR, -DQ and HLA-I molecules, CD40, CD54, CD80", "setting": "[4]; [5]", "value": "up-regulation"}, {"measurement": "phenotypic maturation of DCs (overall)", "setting": "[4]; Example 10, FIG. 10", "value": "comparable to that induced by LPS"}, {"measurement": "expression of CD11a, CD11c, CD13, CD25, CD29 and CD50 antigens", "setting": "[4]; Example 10, 10 μg/ml, day 6-cultured DCs", "value": "slight up-regulation"}]}
